According to article PMC3866693 (Journal of medicinal chemistry, 2013):
Each block holds one compound with its values, some of them ahead of it.

Assays:
[1] = target: mGluR5 in monkey brain (Macaca mulatta, UniProt A0ACM8QRY8); experiment: PET challenge experiment with mGluR5-selective ligand in rhesus monkey; type: in vivo, rhesus monkey (Macaca mulatta); conditions: 5 mg/kg i.v. at 30 min after [^18F]11, third monkey
[2] = target: NMDA; experiment: NIMH PDSP binding screen; design: species or system human
[3] = target: rat BZP site; experiment: NIMH PDSP binding screen
[4] = compared with 7; cited from earlier work
[5] = target: mGluR1 (Rattus norvegicus, UniProt P23385); experiment: stimulation of phosphoinositide hydrolysis, cloned rat receptors; type: cell-based; conditions: 10 μM
[6] = target: mGluR5 (Rattus norvegicus, UniProt P31424); experiment: as above; type: cell-based; conditions: 10 μM
[7] = target: GABAA; experiment: NIMH PDSP binding screen; design: species or system human
[8] = test system: human mGluR1; conditions: read-out: IC50 (affinity for mGluR1); human mGluR1, reported; cited from earlier work
[9] = test system: mGluR1 in monkey brain; experiment: PET baseline experiment in rhesus monkey, brain radioactivity uptake; type: in vivo, rhesus monkey (Macaca mulatta)
[10] = target: mGluR1 in monkey brain (Macaca mulatta, UniProt I2CU04); experiment: PET preblock and challenge experiments with mGluR1 antagonist in rhesus monkey; type: in vivo, rhesus monkey (Macaca mulatta)
[11] = test system: rat mGluR1; conditions: VS = fP × Bmax/KD; cited from earlier work
[12] = test system: human mGluR1; conditions: VS = fP × Bmax/KD; cited from earlier work

Sequence of mGluR1 in monkey brain (Macaca mulatta, UniProt I2CU04) (I2CU04 19-1195): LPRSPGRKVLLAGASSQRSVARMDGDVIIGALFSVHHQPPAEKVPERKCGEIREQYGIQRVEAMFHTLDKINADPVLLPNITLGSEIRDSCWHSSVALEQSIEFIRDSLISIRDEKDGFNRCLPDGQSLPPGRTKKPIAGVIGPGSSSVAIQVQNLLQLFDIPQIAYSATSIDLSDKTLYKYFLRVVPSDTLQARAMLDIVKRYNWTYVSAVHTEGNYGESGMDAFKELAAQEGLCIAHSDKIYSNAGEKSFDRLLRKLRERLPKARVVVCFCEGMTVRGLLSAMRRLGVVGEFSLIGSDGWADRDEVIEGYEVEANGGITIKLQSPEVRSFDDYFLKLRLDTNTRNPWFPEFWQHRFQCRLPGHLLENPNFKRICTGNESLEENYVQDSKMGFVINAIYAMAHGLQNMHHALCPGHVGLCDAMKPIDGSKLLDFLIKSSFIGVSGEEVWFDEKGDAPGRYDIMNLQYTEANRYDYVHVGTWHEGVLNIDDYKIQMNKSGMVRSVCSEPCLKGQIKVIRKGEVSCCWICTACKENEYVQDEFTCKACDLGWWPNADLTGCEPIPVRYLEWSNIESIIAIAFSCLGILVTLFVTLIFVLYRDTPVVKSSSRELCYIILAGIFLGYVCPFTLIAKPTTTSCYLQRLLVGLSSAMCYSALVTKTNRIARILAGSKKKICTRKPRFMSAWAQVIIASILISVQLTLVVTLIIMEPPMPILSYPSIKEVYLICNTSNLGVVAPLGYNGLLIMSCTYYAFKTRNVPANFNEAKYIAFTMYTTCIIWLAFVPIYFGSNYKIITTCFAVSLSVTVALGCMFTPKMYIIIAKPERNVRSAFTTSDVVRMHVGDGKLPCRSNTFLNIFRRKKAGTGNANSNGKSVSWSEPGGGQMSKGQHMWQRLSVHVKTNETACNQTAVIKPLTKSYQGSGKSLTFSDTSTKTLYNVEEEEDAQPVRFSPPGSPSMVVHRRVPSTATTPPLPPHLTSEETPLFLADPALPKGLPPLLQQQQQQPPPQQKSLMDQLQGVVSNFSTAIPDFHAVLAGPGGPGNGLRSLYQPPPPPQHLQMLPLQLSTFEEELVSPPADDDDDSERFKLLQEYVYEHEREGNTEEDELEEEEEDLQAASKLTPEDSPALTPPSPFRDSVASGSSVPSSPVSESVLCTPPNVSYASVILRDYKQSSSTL
Sequence of mGluR5 in monkey brain (A0ACM8QRY8 19-1212): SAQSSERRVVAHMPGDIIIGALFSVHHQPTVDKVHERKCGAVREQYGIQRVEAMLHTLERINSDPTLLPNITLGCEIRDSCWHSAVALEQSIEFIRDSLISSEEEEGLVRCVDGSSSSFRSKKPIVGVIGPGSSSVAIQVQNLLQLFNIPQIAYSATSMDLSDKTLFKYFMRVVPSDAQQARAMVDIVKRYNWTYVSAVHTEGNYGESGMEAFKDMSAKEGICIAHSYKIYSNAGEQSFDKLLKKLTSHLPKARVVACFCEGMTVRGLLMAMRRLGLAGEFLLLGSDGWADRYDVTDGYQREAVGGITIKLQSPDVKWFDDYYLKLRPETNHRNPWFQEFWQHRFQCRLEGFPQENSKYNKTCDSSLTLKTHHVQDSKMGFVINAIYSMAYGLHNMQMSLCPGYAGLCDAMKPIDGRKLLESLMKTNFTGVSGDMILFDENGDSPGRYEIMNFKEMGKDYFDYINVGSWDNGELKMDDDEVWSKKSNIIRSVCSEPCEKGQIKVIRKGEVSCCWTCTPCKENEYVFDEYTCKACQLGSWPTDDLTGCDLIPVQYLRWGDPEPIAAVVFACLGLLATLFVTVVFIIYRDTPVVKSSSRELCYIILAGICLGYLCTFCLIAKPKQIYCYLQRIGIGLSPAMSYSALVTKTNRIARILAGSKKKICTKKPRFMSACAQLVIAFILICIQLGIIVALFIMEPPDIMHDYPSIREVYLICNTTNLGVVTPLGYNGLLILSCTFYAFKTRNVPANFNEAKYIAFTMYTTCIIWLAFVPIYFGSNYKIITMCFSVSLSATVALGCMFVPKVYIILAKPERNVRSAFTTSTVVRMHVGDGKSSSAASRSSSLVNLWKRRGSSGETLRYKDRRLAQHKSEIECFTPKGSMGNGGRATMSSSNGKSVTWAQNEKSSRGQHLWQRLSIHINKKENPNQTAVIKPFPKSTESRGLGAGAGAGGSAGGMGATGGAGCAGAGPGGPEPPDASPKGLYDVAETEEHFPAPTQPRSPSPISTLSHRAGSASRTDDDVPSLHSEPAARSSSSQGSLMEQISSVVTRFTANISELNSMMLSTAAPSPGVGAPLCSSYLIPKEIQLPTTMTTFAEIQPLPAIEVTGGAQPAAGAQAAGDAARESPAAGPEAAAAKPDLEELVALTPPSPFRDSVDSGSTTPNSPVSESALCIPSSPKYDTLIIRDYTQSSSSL
Sequence of mGluR1 (P23385 19-1199): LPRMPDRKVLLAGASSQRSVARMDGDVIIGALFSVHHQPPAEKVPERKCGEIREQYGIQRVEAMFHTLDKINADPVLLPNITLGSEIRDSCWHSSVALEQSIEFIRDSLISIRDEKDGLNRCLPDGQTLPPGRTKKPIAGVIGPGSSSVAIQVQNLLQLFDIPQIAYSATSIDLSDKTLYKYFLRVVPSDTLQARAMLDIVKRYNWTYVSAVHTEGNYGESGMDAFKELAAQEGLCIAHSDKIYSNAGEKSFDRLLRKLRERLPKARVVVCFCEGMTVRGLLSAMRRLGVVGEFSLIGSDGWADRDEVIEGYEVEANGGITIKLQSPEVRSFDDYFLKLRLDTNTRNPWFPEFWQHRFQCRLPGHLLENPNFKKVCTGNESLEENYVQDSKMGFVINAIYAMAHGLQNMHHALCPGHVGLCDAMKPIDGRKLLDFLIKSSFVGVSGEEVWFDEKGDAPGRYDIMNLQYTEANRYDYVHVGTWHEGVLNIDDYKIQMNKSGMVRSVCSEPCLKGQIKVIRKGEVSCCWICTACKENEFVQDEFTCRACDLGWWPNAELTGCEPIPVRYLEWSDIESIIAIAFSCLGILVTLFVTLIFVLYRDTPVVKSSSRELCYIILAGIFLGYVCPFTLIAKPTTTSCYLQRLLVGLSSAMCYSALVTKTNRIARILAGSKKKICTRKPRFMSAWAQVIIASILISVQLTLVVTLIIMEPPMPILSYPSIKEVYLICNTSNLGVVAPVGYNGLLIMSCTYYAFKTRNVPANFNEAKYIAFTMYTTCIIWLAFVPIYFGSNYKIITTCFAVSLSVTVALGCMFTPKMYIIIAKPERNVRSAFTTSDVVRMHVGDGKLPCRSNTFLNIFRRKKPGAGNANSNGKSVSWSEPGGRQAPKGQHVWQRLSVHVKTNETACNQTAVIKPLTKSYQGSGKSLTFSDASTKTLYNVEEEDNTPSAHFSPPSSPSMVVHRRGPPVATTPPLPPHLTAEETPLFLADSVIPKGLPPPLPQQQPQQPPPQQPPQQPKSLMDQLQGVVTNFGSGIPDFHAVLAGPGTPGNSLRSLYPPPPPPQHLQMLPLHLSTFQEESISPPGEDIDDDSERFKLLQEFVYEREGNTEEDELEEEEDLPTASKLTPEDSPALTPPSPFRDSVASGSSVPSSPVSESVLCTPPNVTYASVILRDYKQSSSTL
Sequence of mGluR5 (P31424 21-1203): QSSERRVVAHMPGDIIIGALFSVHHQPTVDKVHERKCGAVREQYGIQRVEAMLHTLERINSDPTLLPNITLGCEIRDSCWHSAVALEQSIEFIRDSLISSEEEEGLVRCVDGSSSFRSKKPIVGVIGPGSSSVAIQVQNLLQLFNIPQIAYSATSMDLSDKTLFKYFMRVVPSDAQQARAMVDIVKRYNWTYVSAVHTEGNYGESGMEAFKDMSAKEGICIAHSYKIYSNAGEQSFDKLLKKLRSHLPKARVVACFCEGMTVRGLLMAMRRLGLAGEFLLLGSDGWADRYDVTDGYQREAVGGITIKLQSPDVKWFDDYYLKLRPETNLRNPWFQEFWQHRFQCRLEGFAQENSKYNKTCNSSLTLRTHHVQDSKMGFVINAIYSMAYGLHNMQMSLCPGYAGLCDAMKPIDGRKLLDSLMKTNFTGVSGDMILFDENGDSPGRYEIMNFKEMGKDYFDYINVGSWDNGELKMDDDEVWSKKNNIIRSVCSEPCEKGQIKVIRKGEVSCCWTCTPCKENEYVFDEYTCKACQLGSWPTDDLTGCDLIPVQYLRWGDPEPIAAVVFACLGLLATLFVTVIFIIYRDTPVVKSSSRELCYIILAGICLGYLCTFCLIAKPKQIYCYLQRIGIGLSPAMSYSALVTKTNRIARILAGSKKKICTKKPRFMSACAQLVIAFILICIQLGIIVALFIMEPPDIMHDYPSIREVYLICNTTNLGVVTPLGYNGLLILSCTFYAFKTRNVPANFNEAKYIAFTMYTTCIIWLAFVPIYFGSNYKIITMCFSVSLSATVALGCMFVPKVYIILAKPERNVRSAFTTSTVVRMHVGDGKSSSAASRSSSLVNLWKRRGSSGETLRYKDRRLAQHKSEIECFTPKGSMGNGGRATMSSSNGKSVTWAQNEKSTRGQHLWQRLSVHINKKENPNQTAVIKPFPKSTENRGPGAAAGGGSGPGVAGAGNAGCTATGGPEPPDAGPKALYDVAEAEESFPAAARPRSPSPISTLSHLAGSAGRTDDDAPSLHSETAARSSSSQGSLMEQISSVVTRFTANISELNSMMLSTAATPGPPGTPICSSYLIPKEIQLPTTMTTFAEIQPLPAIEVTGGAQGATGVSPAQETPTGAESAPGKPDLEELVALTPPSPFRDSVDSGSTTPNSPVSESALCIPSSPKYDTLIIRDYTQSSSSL

Compound: Cc1nc(C#Cc2cccnc2)cs1 [compound 18, 3-((2-methyl-4-thiazolyl)ethynyl)pyridine]
- effect on [^18F]11 brain washout kinetics after challenge [1]: no change in the washout kinetics from any brain region

Compound: CO[C@H]1CC[C@@H](C(=O)c2ccc3nc4c(cc3c2)CCCO4)CC1 [compound 17]
- distribution of [^18F]11 radioactivity across brain after preblock ([10]; 3 mg/kg i.v. at 5 min before [^18F]11): low and uniform
- effect on [^18F]11 brain radioactivity after challenge ([10]; 3 mg/kg i.v. at 30 min after [^18F]11, second monkey): rapid decrease in radioactivity at all mGluR1-containing regions

Compound: CC(C)Nc1cc(-c2csc(N(C)C(=O)c3ccc(F)cc3)n2)ncn1 [[^18F]7, reference compound]
- IC50 [8]: 5.1 nM

Compound: Cc1c(-c2ccc(O[11CH3])cc2)nsc1NC(=O)[C@@H]1C[C@H]1C [[^11C]6]
- effective binding potential (VS) [11]: 0.683
- effective binding potential (VS) [12]: 0.0161

Second part, led by results:

- Ki [2]: > 10000 nM
- Ki [3]: > 10000 nM
- efficacy at mGluR1 (stimulation of phosphoinositide hydrolysis) [5]: antagonist
- efficacy at mGluR5 (stimulation of phosphoinositide hydrolysis) [6]: antagonist
- Ki [7]: > 10000 nM
Compound: CNc1cc(-c2csc(N(C)C(=O)c3ccc(F)cc3)n2)ncn1 [compound 11, 4-Fluoro-N-methyl-N-(4-(6-(methylamino)pyrimidin-4-yl)thiazol-2-yl)benzamide]
- extent of metabolism in human liver microsomes [4]: metabolized more extensively than 7
- IC50 [8]: 1.8 nM

- radiodefluorination (radioactivity uptake in skull) ([9]; all PET experiments in monkey): negligible
Compound: CNc1cc(-c2csc(N(C)C(=O)c3ccc([18F])cc3)n2)ncn1 [[^18F]11, [^18F]4-Fluoro-N-methyl-N-(4-(6-(methylamino)pyrimidin-4-yl)thiazol-2-yl)benzamide]
- decrease of cerebellum radioactivity from peak ([9]; baseline, at end of 2-h scan (120 min)): 47%
